Laboratory results as given in US7897846B2, “Maize event DP-098140-6 and compositions and methods for the identification and/or detection thereof” (Pioneer Hi-Bred Int'l, Inc., priority 2006, dated 2011).
Like-named read-outs stand apart in the source and are kept apart here.

Tests used:
DP-098140-6 maize [1] = assay type: in vivo, Zea mays; settings: 98140 maize
Method: (§1) Plants were grown in a greenhouse using a randomized complete block design containing four blocks. Each block consisted of twenty-four flats. Flats representing entries 1-12 (segregating 1:1) contained approximately fifteen plants per entry, while flats representing entries 13-24 (non-segregating) contained approximately ten plants per entry. Trait confirmation for GLYAT4621 was conducted for test and control entries at the V2 growth stage using lateral flow strip tests specific for the GLYAT protein. Plants with positive trait confirmation results (expressing GLYAT4621) were used for test entries and plants with negative trait confirmation results (not expressing GLYAT4621) were used as the control entries. Any remaining negative segregants not used for controls were then removed and remaining positive plants were thinned to 5 plants per entry within each block (treatment). At the V4 growth stage, a herbicide treatment containing glyphosate (1.46 L/ha or 20 oz/acre)+nonionic surfactant (0.25% vol./vol.)+ammonium sulfate (3.4 kg/ha) was applied to entries 1, 9, 13, and 21; herbicides containing thifensulfuron (3.5 g/ha or 0.5 oz/acre) and tribenuron (3.5 g/ha or 0.5 oz/acre) each containing nonionic surfactant (0.25% vol./vol.)+ammonium sulfate (3.4 kg/ha) were applied to entries 2, 10, 14 and 22; and a tank mixture of herbicides containing glyphosate, thifensulfuron and tribenuron was applied to entries 3, 11, 15, and 23 (Table 15).
(§2) Herbicide injury was evaluated visually at 14 and 21 days after herbicide application by estimating herbicide injury percentage, where “0” represented no visible injury and “100” represented complete plant death. The injury rating took into account all symptoms of herbicide injury when compared to the untreated entry for the same maize line. Injury symptoms included discoloration, leaf speckling, and wilting. The untreated entries for each maize line were rated as 0% injury and the herbicide treated entries of the same maize line were rated by comparing them to this untreated entry. Photographs were taken at 21 days following herbicide application to record herbicide injury. In order to further characterize tolerance to ALS-inhibiting herbicides, a characteristic of the zm-hra gene in DP-098140-6 maize, plant heights were measured for all entries at 14 and 21 days post herbicide treatment. Plant height was measured in cm from the soil surface to the tip of the highest leaf when extended by hand.
(§3) Means, standard error and P-values were calculated for plant height data. Means were calculated for herbicide injury scores. Means, ranges and standard deviations of protein expression data were calculated for each protein expressed in leaf and seed tissues.

[2] = system: near isoline control maize; assay type: in vivo, Zea mays
Method: as §1, §2, §3

DP-098140-6 maize [3] = experiment: Greenhouse herbicide tolerance, visual herbicide injury rating, two generations; assay type: in vivo, Zea mays; settings: applied at V4
Method: (§4) The objective of this study was to evaluate the herbicide tolerance and protein expression in maize containing the event DP-098140-6.
as §1, §2, §3

[4] = system: near isoline control maize; experiment: as above; assay type: in vivo, Zea mays; settings: for Average Herbicide Injury Rating: Control maize, 0-100 scale, applied at V4
Method: as §4, §1, §2, §3

[5] = GLYAT4621 sandwich ELISA, leaf tissue at V5 stage (pg/μg total extractable protein); set-up: species or system Zea mays; settings: DP-098140-6 maize leaf tissue, V5 growth stage, greenhouse; 20 plants
Method: Expression of the GLYAT4621 and Zm-HRA proteins has been evaluated on the leaf tissue collected at the V5 stage of growth from plants cultivated in greenhouses. For each sample, four fresh leaf punches were collected and ground in sample extraction buffer using a GenoGrinder (Spex Certiprep). Total Extractable Protein (TEP) was determined using the Bio-Rad Protein assay, which is based on the Bradford dye-binding procedure. Sample extracts were diluted in sample extraction buffer for ELISA analysis.
The GLYAT4621 and ZM-HRA ELISA's utilize a “sandwich” format for the quantification of the specific target protein in plant tissue extracts. […] The reaction is stopped with Sulfuric acid and the optical density of each well is determined using a Molecular Devices plate reader with a wavelength setting of 450 nm-650 nm. […] The mean concentration from the duplicate wells is expressed as pg target protein/μg of total extractable protein (TEP). The sample lower limit of quantification (LLOQ) was 10 pg GLYAT4621 protein/μg TEP and the upper detection limit was 2000 pg GLYAT4621 protein/μg TEP. The sample lower limit of quantification was 20 pg ZM-HRA protein/μg TEP and the upper detection limit was 5000 pg ZM-HRA protein/μg TEP.

In the case of O=C(O)CNCP(=O)(O)O [Glyphosate, glyphosate], the “Plant height, Least Square Means” value (DP-098140-6 maize [1]; Generation 1, 14 days following treatment) is reported as 103 cm, the “Plant height, Least Square Means” value (DP-098140-6 maize [1]; Generation 1, 21 days following treatment) is reported as 120 cm and the “Plant height, Least Square Means” value (DP-098140-6 maize [1]; Generation 2, 14 days following treatment) is reported as 101 cm. The “Plant height, Least Square Means” value (DP-098140-6 maize [1]; Generation 2, 21 days following treatment) was 115 cm, the “Plant height, Least Square Means” value ([2]; Generation 1, 14 days following treatment, 0 cm = visible plant that has died due to herbicide treatment) was 0.00 cm and the “Plant height, Least Square Means” value ([2]; Generation 1, 21 days following treatment, 0 cm = visible plant that has died due to herbicide treatment) was 0.00 cm. The “Plant height, Least Square Means” value ([2]; Generation 2, 14 days following treatment, 0 cm = plant died due to herbicide) was 0.00 cm, the “Plant height, Least Square Means” value ([2]; Generation 2, 21 days following treatment, 0 cm = plant died due to herbicide) was 0.00 cm and the “Average Herbicide Injury Rating” value (DP-098140-6 maize [3]; Generation 1, 14 days post-treatment, 0 = no visible injury, 100 = complete plant death) was 0. For the same molecule, the “Average Herbicide Injury Rating” value (DP-098140-6 maize [3]; Generation 1, 21 days post-treatment, 0-100 scale) was 0, the “Average Herbicide Injury Rating” value (DP-098140-6 maize [3]; Generation 2, 14 days post-treatment, 0-100 scale) was 0 and the “Average Herbicide Injury Rating” value (DP-098140-6 maize [3]; Generation 2, 21 days post-treatment, 0-100 scale) was 0. For the same molecule, the “Average Herbicide Injury Rating” value ([4]; Generation 1, 14 days post-treatment) was 100, the “Average Herbicide Injury Rating” value ([4]; Generation 1, 21 days post-treatment) was 100 and the “Average Herbicide Injury Rating” value ([4]; Generation 2, 14 days post-treatment) was 100. The “Average Herbicide Injury Rating” value ([4]; Generation 2, 21 days post-treatment) was 100 and the injury ([4]; sprayed control maize, both generations) was 100%.

B1: GLYAT4621: glyphosate acetyltransferase protein encoded by the glyat4621 gene, expressed in DP-098140-6 maize (protein)
chain: MAIEVKPINAEDTYDLRHRVLRPNQPIEACMFESDLTRSAFHLGGFYGGKLISVASFHQAEHSELQGKKQYQLRGVATLEGYREQKAGSSLVKHAEEILRKRGADMIWCNARTSASGYYRKLGFSEQGEVFDTPPVGPHILMYKR
modifications: GAT4621 probe
notes: glyphosate acetyltransferase protein encoded by the glyat4621 gene, expressed in DP-098140-6 maize
For B1, the “Expression level of GLYAT4621 protein, Mean” value [5] was 571.7 pg/μg TEP.
